What was measured:
[1] = target: histamine H1-receptor (Homo sapiens, UniProt P35367); test: in vitro affinity and selectivity for H1-receptors; format: binding
[2] = system: persistent allergic rhinitis; test: clinical study of efletirizine dihydrochloride in persistent allergic rhinitis (T5SS, RQLQ, SF-36), placebo-controlled; format: in vivo, adult patients; conditions: patients with persistent allergic rhinitis
Source text: A study relative to the clinical effect of efletirizine dihydrochloride is planed to establish on the intention to treat (ITT population) whether an approximately 6 month efletirizine treatment can improve the quality of life and clinical symptoms from adult patients suffering from persistent allergic rhinitis, when compared to placebo.
Secondary parameters of efficacy include different durations of treatment, different symptoms, different quality of life questionnaires, the incidence of co-morbidities suspected to be linked to allergic rhinitis and pharmaco-economic variables. The safety of this long-term treatment with efletirizine is also evaluated.
The target population of this study consists of adults aged more than 18 years suffering from persistent allergic rhinitis [WHO Initiative on Allergic Rhinitis and its Impact on Asthma (ARIA), 2000, pages S147-S149]. To be enrolled, the subjects need to have sufficient rhinitis symptoms during the selection period. Excluded are patients with ENT (Ear-Nose-Throat) or eye infection preceding initial visit. […]
The severity of clinical symptoms is rated by the T5SS (sneezing, rhinorrhea, nasal pruritus, ocular pruritus and nasal congestion) evaluated each by a score from 0 to 3 each day. The impact on health related quality of life is measured using the Rhinoconjunctivitis Quality of Life Questionnaire (RQLQ, SF36) (E. JUNIPER and G. H. GUYATT, Development and testing of a new measure of health status for clinical trials in rhinoconjunctivitis, Clinical and Experimental Allergy 1991; 21:77-83; E. JUNIPER, Measuring Health Related Quality of Life in rhinitis, J. Allergy Clin. Immunol. 1997; 99:S742-9). […]
At each of the visits, diary book entries (T5SS, RQLQ, SF-36, indirect cost pharmaco-economic parameters, concomitant medication, outpatient consultations and adverse events) are verified and transferred into the Clinical Record Form and direct cost pharmaco-economic parameters will be recorded. […]
Adverse events are recorded by the patients on diary cards and discussed with the investigator at each visit. […]

Sequence of histamine H1-receptor (P35367 whole entry, species assumed): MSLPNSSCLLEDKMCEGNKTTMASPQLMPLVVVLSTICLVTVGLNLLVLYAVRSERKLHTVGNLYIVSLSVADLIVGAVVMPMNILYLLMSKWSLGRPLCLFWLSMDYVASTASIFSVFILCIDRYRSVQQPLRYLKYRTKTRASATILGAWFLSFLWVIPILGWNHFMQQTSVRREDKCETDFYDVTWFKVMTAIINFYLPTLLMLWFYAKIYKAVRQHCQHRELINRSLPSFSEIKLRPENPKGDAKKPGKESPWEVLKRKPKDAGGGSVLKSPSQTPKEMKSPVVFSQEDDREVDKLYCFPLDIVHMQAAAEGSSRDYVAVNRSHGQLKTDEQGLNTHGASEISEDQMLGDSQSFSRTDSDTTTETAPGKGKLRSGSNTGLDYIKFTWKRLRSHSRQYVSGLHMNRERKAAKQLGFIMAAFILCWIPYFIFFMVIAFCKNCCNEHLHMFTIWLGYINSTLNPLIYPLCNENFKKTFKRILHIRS

affinity for H1-receptors [1] | Structure (SMILES) | duration of effect on persistent rhinitis [2] | duration of effect on quality of life [2] | effect on nasal congestion [2]
high affinity | O=C(O)COCCN1CCN(C(c2ccc(F)cc2)c2ccc(F)cc2)CC1 [Efletirizine, 2-[2-[4-[Bis(4-fluorophenyl)methyl]-1-piperazinyl]ethoxy]acetic acid] | – | – | –
– | Cl.Cl.O=C(O)COCCN1CCN(C(c2ccc(F)cc2)c2ccc(F)cc2)CC1 [efletirizine dihydrochloride] | more than 4 weeks | more than 4 weeks | has an effect on nasal congestion

— US20070185122A1, “Use of efletirizine for treating persistent allergic rhinitis” (priority 2003, published 2007)
